The source of these data is patent EP0107208A1, “1,1,2-Triphenyl-but-1-ene derivatives, process for their preparation and their use as medicines” (Klinge Pharma GmbH, priority 1982, dated 1984).

Assay [1] deals with ZR-75-1-Zellen. The experiment in a line: Inhibition of RNA synthesis in isolated human mammary tumour cells (incorporation of labelled uridine). The assay is classed as cell-based. To be noted: for inhibition at 1 µM / inhibition at 4 µM / inhibition at 0.1 µM: Homo sapiens, ZR-75-1, 48 h; for Prozentuale Hemmung der RNS-Synthese: 2880 min. An excerpt: […] positive [ER +] Mammatumor-Zellen aus Patienten zu isolieren und in vitro kontinuierlich zu […] sog. […] in vivo beobachteten morphologischen […] und […] somit […] zur Testung von Antiestrogenen dar,da direkte Aussagen über den Einfluß auf den in vivo zu […]. […] Der Einfluß der beanspruchten Verbindunger. auf das Wachstum dieser Zellen wurde über den Einbau von […] bzw. Thymidin nach der Methode von Lippman, M. et al kontrolliert. […] Thymidin versetzt und nach einer Stunde die Einbaurate des markierten Materials in den Zellen bestimmt.

Another assay has as its target T1, Estradiolrezeptor (Oryctolagus cuniculus, UniProt G1SML6).
T1 construct: Das Uteruscytosol von weiblichen, präpubertären, weißen 2 kg schweren Kaninchen (Neuseeländer); from tissue; host or cells: uterus cytosol of female prepubertal New Zealand white rabbits
T1 sequence (G1SML6 1-598): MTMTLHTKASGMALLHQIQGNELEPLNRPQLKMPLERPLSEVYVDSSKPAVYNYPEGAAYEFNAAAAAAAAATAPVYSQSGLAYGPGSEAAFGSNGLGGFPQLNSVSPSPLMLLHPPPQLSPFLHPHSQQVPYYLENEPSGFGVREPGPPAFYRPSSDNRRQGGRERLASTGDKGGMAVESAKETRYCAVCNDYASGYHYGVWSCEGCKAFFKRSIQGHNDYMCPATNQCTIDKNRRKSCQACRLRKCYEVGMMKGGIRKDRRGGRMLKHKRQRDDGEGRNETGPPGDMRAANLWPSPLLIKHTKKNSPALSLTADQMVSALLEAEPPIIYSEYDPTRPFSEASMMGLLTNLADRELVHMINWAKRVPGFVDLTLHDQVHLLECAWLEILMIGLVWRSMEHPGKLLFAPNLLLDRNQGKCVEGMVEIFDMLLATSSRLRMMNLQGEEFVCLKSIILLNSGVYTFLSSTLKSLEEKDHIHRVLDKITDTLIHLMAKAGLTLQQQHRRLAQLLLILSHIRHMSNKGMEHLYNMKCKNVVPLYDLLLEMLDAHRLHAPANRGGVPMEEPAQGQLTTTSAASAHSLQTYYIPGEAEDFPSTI
The assay is described as follows: Binding affinity to the estradiol receptor: displacement of [3H]-estradiol in rabbit uterus cytosol. Also noted: species or system Kaninchen (Neuseeländer). To be noted: molar concentration displacing 50% [3H]-Estradiol from the receptor, 18 h at 4° C, 2.5 ×10^-9 M [3H]-Estradiol, read-out: ED50% (the source's name). An excerpt: Die Messung der Eindungsaffinität zum Estradiolrezeptor erfolgte nach der Eethode von N. Devleeschouwer, G. Leclercq, A. Danguy und J. C. Heuson LEurop. J. Cancer, 14 ,721 - 723 (197o)].
Testsubstanz verschiedener Konzentration inkubiert.Die Bindungsaffinität zum Estradiolrezeptor wird ausgedrückt durch die aen. […] Testsubstanz, welche eine 5C-prcz.
(Displacement assays read how much labelled ligand stays bound in the presence of the test substance.)

Assay [2] concerns ZR-75-1-Zellen. The assay is described as follows: Inhibition of RNA synthesis in ZR-75-1 cells in the presence of 17-β-estradiol. To be noted: Homo sapiens, compound 1 x 10^-6 [M] + 17-β-Estradiol 1 x 10^-8 [M], 48 h incubation, read-out: Prozentuale Hemmung der RNS-Synthese. The assay is classed as cell-based. From the text: Zur […] vivo wurde die Potenz der antiestrogenen Wirkung der beanspruchten Verbindungen in Gegenwart eines Estrogens geprüft. […] Thymidin hinzugefügt und nach einer Stunde die Einbaurate des markierten Materials in gen Zellen bestimmt.[Tab.4]

The mark [3] stands for this setting: read-out: Prozentuale Hemmung der RNS-Synthese.

Several values for one entry are separate records, joined by “and”; a condition that tells them apart may be missing. Equal values may be shown once. Read-outs that look alike come from different tables or passages of the source.

As to `CC/C(=C(\c1ccccc1)c1ccc(OCCN(C)C)cc1)c1ccccc1` [Tamoxifen, (Z)-1-[4'-(2-Dimetrylaminoethcxy)phenyl]-1,2-diphenyl-but-1-en, reference compound], the inhibition at 1 µM with ZR-75-1-Zellen [1] (read-out: Prozentuale Hemmung der RNS-Synthese, substance concentration 1 x 10^-6[M], 48 h incubation, Tamoxifen run in each experiment) was 43%. Besides, the inhibition at 4 µM in the assay with ZR-75-1-Zellen [1] (read-out: Prozentuale Hemmung der RNS-Synthese, substance concentration 4 x 10^-6[M], 48 h incubation, Tamoxifen run in each experiment) was 99%. The “Prozentuale Hemmung der RNS-Synthese” value in the assay on ZR-75-1-Zellen [1] (substance concentration 1 x 10^-6[M], 48 h incubation, Tamoxifen run in each experiment, 1 µM) is 44% and 39% and 59%; with ZR-75-1-Zellen [1] (substance concentration 1 x 10^-6[M], 48 h incubation, Tamoxifen run in each experiment, listed as Taxoxifen, 1 µM), 46%; in the assay on ZR-75-1-Zellen [1] (substance concentration 1 x 10^-7[M], 48 h incubation, Tamoxifen run in each experiment, 0.1 µM), 29% and 16%; with ZR-75-1-Zellen [1] (substance concentration 1 x 10^-7[M], 48 h incubation, Tamoxifen run in each experiment, 0.1 µM, listed as Taxoxifen), 2%; with ZR-75-1-Zellen [1] (substance concentration 4 x 10^-6[M], 48 h incubation, Tamoxifen run in each experiment, 4 µM) it was 100%; in the assay with ZR-75-1-Zellen [1] (substance concentration 4 x 10^-6[M], 48 h incubation, Tamoxifen run in each experiment, listed as Taxoxifen, 4 µM) it was 93%.

In the case of `CC/C(=C(/c1ccc(OCCN(C)C)cc1)c1cccc(O)c1)c1cccc(C)c1` [Verbindung 1, (E)-1-[4'-(2-Dimethylaminoethoxy)phenyl]-1-(3'-hydroxyphenyl)-2-(3'-methylphenyl)-but-1-en], the IC50 at Estradiolrezeptor turned out to be 35 nM. In the assay with ZR-75-1-Zellen [1] (setting [3]), the inhibition at 0.1 µM turned out to be 47%, the inhibition at 1 µM was found to be 74% and the inhibition at 4 µM came out at 100%. Further, the inhibition at 1 µM with ZR-75-1-Zellen [2] amounted to 74%.

As for `CC/C(=C(/c1ccc(OCCN(C)C)cc1)c1cccc(O)c1)c1ccc(C)cc1` [Verbindung 2], the IC50 at Estradiolrezeptor was determined as 73 nM. Further, in the assay with ZR-75-1-Zellen [1] (setting [3]), the inhibition at 0.1 µM was determined as 42%, the inhibition at 1 µM came out at 62% and the inhibition at 4 µM came to 100%. Also, the inhibition at 1 µM in the assay on ZR-75-1-Zellen [2] was 58%.

As to `CC/C(=C(/c1ccc(OCCN(C)C)cc1)c1cccc(O)c1)c1ccc(OC)cc1` [Verbindung 3, (E)-1-[4'-(2-Dimethylaminoethoxy)phenyl]-1-(3'-hydroxyphenyl)-2-(4'-methoxyphenyl)-but-1-en], the IC50 at Estradiolrezeptor is 28 nM. Also, in the assay with ZR-75-1-Zellen [1] (setting [3]), the inhibition at 0.1 µM came out at 36%, the inhibition at 1 µM amounted to 68% and the inhibition at 4 µM worked out at 100%. The inhibition at 1 µM in the assay on ZR-75-1-Zellen [2] amounted to 65%.

With `CC/C(=C(/c1ccc(OCCN(C)C)cc1)c1cccc(O)c1)c1cccc(O)c1` [Verbindung 4, (E)-1-[4'-(2-Dimethylaminoethoxy)phenyl]-1,2-bis-(3'-hydroxyphenyl)-but-1-en], in the assay on ZR-75-1-Zellen [1] (setting [3]), the inhibition at 0.1 µM was 33%, the inhibition at 1 µM amounted to 73% and the inhibition at 4 µM worked out at 100%. In addition, the inhibition at 1 µM in the assay with ZR-75-1-Zellen [2] was determined as 79%.

As to `CC/C(=C(/c1ccc(OCCN(C)C)cc1)c1cccc(O)c1)c1ccc(Cl)cc1` [Verbindung 5], the IC50 on Estradiolrezeptor was found to be 85 nM. For the same compound, in the assay with ZR-75-1-Zellen [1] (setting [3]), the inhibition at 0.1 µM was found to be 41%, the inhibition at 1 µM is 61% and the inhibition at 4 µM was 100%.

Consider `CC/C(=C(/c1ccc(OCCN(C)C)cc1)c1cccc(O)c1)c1ccc(Br)cc1` [Verbindung 6, (E)-2-(4'-Bromphenyl)-1-[4'-(2-dimethylaminoethoxy)phenyl]-1-(3'-hydroxyphenyl)-but-l-en], for which, in the assay with ZR-75-1-Zellen [1] (setting [3]), the inhibition at 0.1 µM turned out to be 47%, the inhibition at 1 µM amounted to 70% and the inhibition at 4 µM came out at 100%. In addition, the inhibition at 1 µM in the assay with ZR-75-1-Zellen [2] stood at 74%.

Take `CC/C(=C(/c1ccc(OCCN(CC)CC)cc1)c1cccc(O)c1)c1ccc(OC)cc1` [Verbindung 7, (E)-1-[4'-(2-Diethylaminoethoxy)phenyl]-1-(3'-hydroxyphenyl)-2-(4'methoxyphenyl)-but-l-en]: in the assay with ZR-75-1-Zellen [1] (setting [3]), the inhibition at 0.1 µM was 4%, the inhibition at 1 µM amounted to 37% and the inhibition at 4 µM was 91%. Besides, the inhibition at 1 µM in the assay on ZR-75-1-Zellen [2] is 41%.
